Assay results from ChEMBL document CHEMBL1137790, “Octahydropyrrolo[3,4-c]pyrrole: a diamine scaffold for construction of either alpha4beta2 or alpha7-selective nicotinic acetylcholine receptor (nAChR) ligands. Substitutions that switch subtype selectivity” (J Med Chem, 2009).

Columns and labels:
[1] = target: Neuronal acetylcholine receptor subunit alpha-7 (Rattus norvegicus, UniProt Q05941); test: Displacement of [3H]A585539 from alpha7 nicotinic acetylcholine receptor in rat brain minus cerebellum membrane; type: tissue-based
Neuronal acetylcholine receptor subunit alpha-7 (Rattus norvegicus, UniProt Q05941), sequence (Q05941 whole entry): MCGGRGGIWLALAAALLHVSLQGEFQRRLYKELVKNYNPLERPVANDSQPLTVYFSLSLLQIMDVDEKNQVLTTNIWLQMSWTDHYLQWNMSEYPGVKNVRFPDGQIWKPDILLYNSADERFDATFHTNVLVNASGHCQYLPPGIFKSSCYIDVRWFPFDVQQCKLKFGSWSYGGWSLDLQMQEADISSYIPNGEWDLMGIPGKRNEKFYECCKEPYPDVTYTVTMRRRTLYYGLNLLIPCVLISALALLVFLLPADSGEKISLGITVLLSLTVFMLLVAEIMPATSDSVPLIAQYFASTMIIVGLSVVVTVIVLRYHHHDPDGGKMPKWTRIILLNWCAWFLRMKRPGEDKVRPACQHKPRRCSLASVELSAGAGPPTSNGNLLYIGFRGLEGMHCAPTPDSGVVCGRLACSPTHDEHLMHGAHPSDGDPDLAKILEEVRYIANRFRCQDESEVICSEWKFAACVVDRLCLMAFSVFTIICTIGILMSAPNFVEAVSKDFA

[2] = target: Neuronal acetylcholine receptor; alpha4/beta2 (Rattus norvegicus, UniProt P09483+P12390); test: Displacement of [3H]cytisine from alpha4beta2 nicotinic acetylcholine receptor in rat brain minus cerebellum membrane; type: tissue-based
Neuronal acetylcholine receptor; alpha4/beta2 (Rattus norvegicus, UniProt P09483+P12390), sequence (P09483 whole entry): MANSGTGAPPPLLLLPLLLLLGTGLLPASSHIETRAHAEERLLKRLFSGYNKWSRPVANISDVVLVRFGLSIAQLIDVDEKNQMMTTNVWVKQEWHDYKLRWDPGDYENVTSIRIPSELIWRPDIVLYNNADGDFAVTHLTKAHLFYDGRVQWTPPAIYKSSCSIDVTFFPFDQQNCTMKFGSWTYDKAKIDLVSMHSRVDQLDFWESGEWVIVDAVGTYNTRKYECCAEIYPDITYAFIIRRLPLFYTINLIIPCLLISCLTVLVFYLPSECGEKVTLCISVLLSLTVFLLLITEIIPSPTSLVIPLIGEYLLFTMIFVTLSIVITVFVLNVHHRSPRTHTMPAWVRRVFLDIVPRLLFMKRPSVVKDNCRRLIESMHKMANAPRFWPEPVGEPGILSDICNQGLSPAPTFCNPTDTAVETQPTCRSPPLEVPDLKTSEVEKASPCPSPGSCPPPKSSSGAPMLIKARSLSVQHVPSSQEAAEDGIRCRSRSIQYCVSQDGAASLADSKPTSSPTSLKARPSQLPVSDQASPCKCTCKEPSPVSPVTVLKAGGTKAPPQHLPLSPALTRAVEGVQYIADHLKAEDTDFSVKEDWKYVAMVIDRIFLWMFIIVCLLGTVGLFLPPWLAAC
Neuronal acetylcholine receptor; alpha4/beta2 (Rattus norvegicus, UniProt P09483+P12390), sequence (P12390 whole entry): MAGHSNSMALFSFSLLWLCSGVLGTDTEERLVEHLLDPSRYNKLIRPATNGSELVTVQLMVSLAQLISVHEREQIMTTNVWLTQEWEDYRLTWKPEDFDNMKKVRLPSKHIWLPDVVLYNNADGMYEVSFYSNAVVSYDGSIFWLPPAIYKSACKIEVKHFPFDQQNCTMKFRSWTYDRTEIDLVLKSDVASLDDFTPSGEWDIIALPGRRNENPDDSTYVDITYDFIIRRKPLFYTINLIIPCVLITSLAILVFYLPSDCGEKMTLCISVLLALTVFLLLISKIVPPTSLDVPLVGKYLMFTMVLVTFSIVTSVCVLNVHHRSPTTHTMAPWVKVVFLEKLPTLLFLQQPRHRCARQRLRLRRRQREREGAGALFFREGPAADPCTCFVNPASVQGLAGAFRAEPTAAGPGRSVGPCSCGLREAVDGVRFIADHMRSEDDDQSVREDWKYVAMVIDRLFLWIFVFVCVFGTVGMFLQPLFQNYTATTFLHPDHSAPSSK

[3] = species: Rattus norvegicus; test: Selectivity ratio of Ki for alpha7 nicotinic acetylcholine receptor to Ki for alpha4beta2 nicotinic acetylcholine receptor in rat brain minus cerebellum membrane; type: tissue-based
[4] = target: T1, Neuronal acetylcholine receptor; alpha4/beta2 (Homo sapiens, UniProt P17787+P43681); test: Agonist activity at human recombinant alpha4beta2 nicotinic acetylcholine receptor expressed in HEK293 cells assessed as changes in intracellular calcium level by FLIPR; type: functional, cell-based
T1 sequence (P17787 whole entry): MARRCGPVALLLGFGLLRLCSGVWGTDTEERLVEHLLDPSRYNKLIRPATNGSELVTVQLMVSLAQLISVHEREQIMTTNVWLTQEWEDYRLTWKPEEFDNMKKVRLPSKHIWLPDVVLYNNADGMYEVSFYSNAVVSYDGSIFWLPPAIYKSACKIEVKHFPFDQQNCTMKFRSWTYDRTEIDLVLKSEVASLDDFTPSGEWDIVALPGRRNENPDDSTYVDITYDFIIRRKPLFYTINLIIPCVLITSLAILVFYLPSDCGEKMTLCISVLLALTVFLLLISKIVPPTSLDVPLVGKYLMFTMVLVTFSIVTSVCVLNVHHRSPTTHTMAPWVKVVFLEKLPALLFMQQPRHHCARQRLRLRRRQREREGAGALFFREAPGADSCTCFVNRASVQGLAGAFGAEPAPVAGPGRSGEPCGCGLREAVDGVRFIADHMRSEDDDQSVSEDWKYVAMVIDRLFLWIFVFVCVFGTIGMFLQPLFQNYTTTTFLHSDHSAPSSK
T1 sequence (P43681 whole entry): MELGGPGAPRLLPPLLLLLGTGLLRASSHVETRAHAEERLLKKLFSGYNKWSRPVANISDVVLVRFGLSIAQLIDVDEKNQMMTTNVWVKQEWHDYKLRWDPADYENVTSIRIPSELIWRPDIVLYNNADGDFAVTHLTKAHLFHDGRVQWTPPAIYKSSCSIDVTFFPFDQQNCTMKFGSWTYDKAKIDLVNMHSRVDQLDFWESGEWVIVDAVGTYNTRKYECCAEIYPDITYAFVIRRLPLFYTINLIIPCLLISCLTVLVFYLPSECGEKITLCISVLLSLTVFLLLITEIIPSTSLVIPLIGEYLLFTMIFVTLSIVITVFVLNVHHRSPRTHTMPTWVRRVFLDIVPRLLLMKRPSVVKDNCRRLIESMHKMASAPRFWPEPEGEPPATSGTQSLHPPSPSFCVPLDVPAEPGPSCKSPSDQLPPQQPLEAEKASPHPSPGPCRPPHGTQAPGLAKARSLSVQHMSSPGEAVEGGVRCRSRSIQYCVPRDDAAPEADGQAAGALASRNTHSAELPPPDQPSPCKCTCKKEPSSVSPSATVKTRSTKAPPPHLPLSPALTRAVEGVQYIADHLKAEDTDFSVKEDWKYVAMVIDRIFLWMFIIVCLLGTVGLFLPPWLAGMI

[5] = target: T2, Neuronal acetylcholine receptor subunit alpha-7 (Homo sapiens, UniProt P36544); test: Agonist activity at human recombinant alpha7 nicotinic acetylcholine receptor expressed in xenopus laevis oocytes at 100 uM by parallel oocyte electrophysiological assay relative to acetylcholine; type: functional, cell-based
T2 sequence (P36544 whole entry): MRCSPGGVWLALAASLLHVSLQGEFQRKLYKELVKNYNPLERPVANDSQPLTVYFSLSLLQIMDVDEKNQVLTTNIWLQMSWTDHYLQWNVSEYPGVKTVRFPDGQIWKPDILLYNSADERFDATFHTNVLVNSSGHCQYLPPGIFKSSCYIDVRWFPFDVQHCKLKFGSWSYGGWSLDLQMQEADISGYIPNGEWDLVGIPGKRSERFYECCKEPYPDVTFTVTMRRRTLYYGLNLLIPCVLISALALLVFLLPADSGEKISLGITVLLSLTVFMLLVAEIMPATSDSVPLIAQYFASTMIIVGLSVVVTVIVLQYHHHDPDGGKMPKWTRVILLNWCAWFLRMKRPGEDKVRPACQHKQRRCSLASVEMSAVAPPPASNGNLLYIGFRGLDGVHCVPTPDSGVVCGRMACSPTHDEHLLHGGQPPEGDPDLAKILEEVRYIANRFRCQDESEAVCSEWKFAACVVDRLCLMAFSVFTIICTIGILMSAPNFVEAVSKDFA

[6] = target: T2, Neuronal acetylcholine receptor subunit alpha-7; test: Agonist activity at human recombinant alpha7 nicotinic acetylcholine receptor expressed in xenopus laevis oocytes by parallel oocyte electrophysiological assay; type: functional, cell-based
[7] = target: T1, Neuronal acetylcholine receptor; alpha4/beta2; test: Agonist activity at human recombinant alpha4beta2 nicotinic acetylcholine receptor expressed in HEK293 cells assessed as changes in intracellular calcium level at 100 uM by FLIPR relative to nicotine; type: functional, cell-based

| Compound | Ki [1] [nM] | Ki [2] [nM] | Ratio Ki [3] | EC50 [4] [nM] | Activity [5] [%] | EC50 [6] [nM] | Activity [7] [%] |
| --- | --- | --- | --- | --- | --- | --- | --- |
| c1cc(N2C[C@H]3CNC[C@H]3C2)ccn1 | > 10000 | > 10000 |  |  |  |  |  |
| CCN1C[C@@H]2CN(c3ccc(-c4ccccc4)nn3)C[C@@H]2C1 | 330 | > 100000 | > 300 |  |  |  |  |
| Cc1cccc(-c2ccc(N3C[C@H]4CN(C)C[C@H]4C3)cn2)c1 | 6.7 | 750 | 112 |  |  |  |  |
| CN1C[C@@H]2CN(c3ccc(-c4cccc(O)c4)nn3)C[C@@H]2C1 | 7.9 | 21000 | 2660 |  |  |  |  |
| c1ccc(N2C[C@H]3CNC[C@H]3C2)nc1 | > 10000 | 260 | > 38 |  |  |  |  |
| C[N+]1(C)C[C@H]2CN(c3ccc(Cl)nc3)C[C@H]2C1 | 340 | 210 | 1.6 |  |  |  |  |
| COc1ccc(-c2ccc(N3C[C@H]4CN(C)C[C@H]4C3)nn2)cc1 | 22 | > 100000 | > 4500 |  |  |  |  |
| c1ccc(-c2ccc(N3C[C@H]4CNC[C@H]4C3)nc2)cc1 | 30 | > 100000 | > 3300 |  |  |  |  |
| CN1C[C@@H]2CN(c3ccc(-c4ccccc4)nc3)C[C@@H]2C1 | 9.6 | 28000 | 0.0003 |  |  |  |  |
| c1ncc(N2C[C@H]3CNC[C@H]3C2)cc1N1CCOCC1 | > 10000 | 47 | > 210 |  |  |  |  |
| c1ccc(-c2ccc(N3C[C@H]4CNC[C@H]4C3)nn2)cc1 | 17.5 | 5320 | 300 | > 100000 | 29 | 1150 | < 10 |
| Cc1ccc(-c2ccc(N3C[C@H]4CN(C)C[C@H]4C3)nn2)cc1 | 11.6 | > 100000 | > 8600 |  |  |  |  |
| CN1C[C@@H]2CN(c3cncc(-c4ccccc4)c3)C[C@@H]2C1 | > 10000 | 51 | > 190 |  |  |  |  |
| CN1C[C@@H]2CN(c3ccc(-c4ccc5[nH]ccc5c4)nn3)C[C@@H]2C1 | 0.24 | > 100000 | > 400000 | > 100000 | 87 | 320 | < 10 |
| Oc1cncc(N2C[C@H]3CNC[C@H]3C2)c1 | > 10000 | 0.75 | > 13000 |  |  |  |  |
| Cc1ccccc1-c1ccc(N2C[C@H]3CN(C)C[C@H]3C2)nn1 | 690 | > 10000 | > 14 |  |  |  |  |
| c1ccc(COc2cncc(N3C[C@H]4CNC[C@H]4C3)c2)cc1 | > 10000 | 0.058 | > 170000 |  |  |  |  |
| COc1cncc(N2C[C@H]3CNC[C@H]3C2)c1 | 240 | 0.081 | 2900 |  |  |  |  |
| CN1C[C@@H]2CN(c3ccc(-c4ccc(O)cc4)nn3)C[C@@H]2C1 | 5.3 | > 10000 | > 1800 |  |  |  |  |
| CN1C[C@@H]2CN(c3ccc(-c4ccccc4)cn3)C[C@@H]2C1 | 17 | > 100000 | > 6000 |  |  |  |  |

| Compound | Ki [1] [nM] | Ki [2] [nM] | Ratio Ki [3] | EC50 [4] [nM] | Activity [5] [%] | EC50 [6] [nM] | Activity [7] [%] |
| --- | --- | --- | --- | --- | --- | --- | --- |
| C[N+]1(C)C[C@H]2CN(c3ccc(-c4ccccc4)nn3)C[C@H]2C1 | 5.98 | > 10000 | > 1600 |  |  |  |  |
| CN1C[C@@H]2CN(c3ccc(-c4cccc([N+](=O)[O-])c4)nc3)C[C@@H]2C1 | 30 | 2600 | 87 |  |  |  |  |
| CN1C[C@@H]2CN(c3cccnc3)C[C@@H]2C1 | 1590 | 26 | 61 |  |  |  |  |
| c1ccc(-c2ccc(N3C[C@H]4CNC[C@H]4C3)cc2)cc1 | 28 | > 10000 | > 350 |  |  |  |  |
| CN1C[C@@H]2CN(c3ccc(Cl)nc3)C[C@@H]2C1 | > 10000 | 38 | > 260 |  |  |  |  |
| CCOc1cncc(N2C[C@H]3CNC[C@H]3C2)c1 | 1440 | 0.035 | 41000 | 370 | 37 | > 100000 | 118 |
| CC(C)Oc1cncc(N2C[C@H]3CNC[C@H]3C2)c1 | > 10000 | 0.051 | > 200000 |  |  |  |  |
| Cc1cc(C)cc(-c2ccc(N3C[C@H]4CN(C)C[C@H]4C3)nn2)c1 | > 10000 | > 100000 |  |  |  |  |  |
| CN1C[C@@H]2CN(c3ccc(-c4ccccc4)cc3)C[C@@H]2C1 | 12 | > 100000 | > 8300 |  |  |  |  |
| CN1C[C@@H]2CN(c3ccc(-c4ccccc4)nn3)C[C@@H]2C1 | 10.8 | > 100000 | > 9200 | > 100000 | 52 | 4260 | < 10 |
| c1cncc(N2C[C@H]3CNC[C@H]3C2)c1 | 51 | 0.12 | 420 | 40 | 129 | 4470 | 146 |
| Brc1cncc(N2C[C@H]3CNC[C@H]3C2)c1 | 66 | 0.06 | 1100 |  |  |  |  |
| CCCOc1cncc(N2C[C@H]3CNC[C@H]3C2)c1 | > 10000 | 0.041 | > 240000 |  |  |  |  |
| Clc1ccc(N2C[C@H]3CNC[C@H]3C2)cn1 | 180 | 0.2 | 900 |  |  |  |  |
| c1ccc(-c2cncc(N3C[C@H]4CNC[C@H]4C3)c2)cc1 | 4560 | 0.16 | 28000 | > 100000 | < 10 | > 100000 | < 10 |
| Brc1ccc(N2C[C@H]3CNC[C@H]3C2)cn1 | 290 | 0.28 | 1000 |  |  |  |  |
| Cc1cccc(-c2ccc(N3C[C@H]4CN(C)C[C@H]4C3)nn2)c1 | 4.42 | > 100000 | > 22000 |  |  |  |  |
| COc1cccc(-c2ccc(N3C[C@H]4CN(C)C[C@H]4C3)cn2)c1 | 5 | > 100000 | > 2000 |  |  |  |  |
| c1ccc(-c2ccc(N3C[C@H]4CNC[C@H]4C3)cn2)cc1 | 8.4 | 96 | 0.09 |  |  |  |  |
| CN1C[C@@H]2CN(c3ccc(-c4cccc(-c5ccccc5)c4)nc3)C[C@@H]2C1 | 44 | 9800 | 220 |  |  |  |  |
